Source: ChEMBL document CHEMBL4507264, “Data for DCP probe BAY-7598” (2021)
Active and inactive are the calls of the source. No cut-off for these calls is given here.

Legend:
[1] = target: Receptor-type tyrosine-protein kinase FLT3 (Homo sapiens) (UniProt P36888); conditions: Compound concentration 1000.0 nM
[2] = target: D(1B) dopamine receptor (Homo sapiens) (UniProt P21918); conditions: Compound concentration 10.0 uM
[3] = target: Serine/threonine-protein kinase DCLK1 (Homo sapiens) (UniProt O15075); conditions: Compound concentration 1000.0 nM
[4] = target: Macrophage metalloelastase (Homo sapiens, UniProt P39900); experiment: Biochemical assay (MMP12)
[5] = target: Bone morphogenetic protein receptor type-2 (Homo sapiens) (UniProt Q13873); conditions: Compound concentration 1000.0 nM
[6] = target: Cytoplasmic tyrosine-protein kinase BMX (Homo sapiens) (UniProt P51813); conditions: Compound concentration 1000.0 nM
[7] = target: Calcium/calmodulin-dependent protein kinase kinase 1 (Homo sapiens) (UniProt Q8N5S9); conditions: Compound concentration 1000.0 nM
[8] = target: Ribosomal protein S6 kinase alpha-1 (Homo sapiens) (UniProt Q15418); conditions: Compound concentration 1000.0 nM
[9] = target: Serine/threonine-protein kinase 24 (Homo sapiens) (UniProt Q9Y6E0); conditions: Compound concentration 1000.0 nM
[10] = target: Serine/threonine-protein kinase 26 (Homo sapiens) (UniProt Q9P289); conditions: Compound concentration 1000.0 nM
[11] = system: Receptor-type tyrosine-protein kinase FLT3 (Homo sapiens), P36888 [D835Y]; conditions: Compound concentration 1000.0 nM
[12] = target: Serine/threonine-protein kinase D2 (Homo sapiens) (UniProt Q9BZL6); conditions: Compound concentration 1000.0 nM
Rattus norvegicus = species: Rattus norvegicus; conditions: Compound concentration 10.0 uM
[13] = target: Inhibitor of nuclear factor kappa-B kinase subunit alpha (Homo sapiens) (UniProt O15111); conditions: Compound concentration 1000.0 nM
[14] = target: Cyclin-dependent kinase 2 homolog (Plasmodium falciparum (isolate 3D7)) (UniProt P61075); conditions: Compound concentration 1000.0 nM
[15] = target: Ribosomal protein S6 kinase alpha-5 (Homo sapiens) (UniProt O75582); conditions: Compound concentration 1000.0 nM
[16] = target: Casein kinase I isoform delta (Homo sapiens) (UniProt P48730); conditions: Compound concentration 1000.0 nM
[17] = target: Tyrosine-protein kinase JAK3 (Homo sapiens) (UniProt P52333); conditions: Compound concentration 1000.0 nM
[18] = target: Myosin-IIIa (Homo sapiens) (UniProt Q8NEV4); conditions: Compound concentration 1000.0 nM
[19] = target: Ephrin type-B receptor 6 (Homo sapiens) (UniProt O15197); conditions: Compound concentration 1000.0 nM
[20] = system: Epidermal growth factor receptor (Homo sapiens), P00533 [UNDEFINED MUTATION]; conditions: Compound concentration 1000.0 nM
[21] = target: Alpha-2C adrenergic receptor (Homo sapiens) (UniProt P18825); conditions: Compound concentration 10.0 uM
[22] = target: Tyrosine-protein kinase Lck (Homo sapiens) (UniProt P06239); conditions: Compound concentration 1000.0 nM
[23] = target: T1, Muscarinic acetylcholine receptor M1 (Homo sapiens) (UniProt P11229); conditions: Compound concentration 10.0 uM
T1 sequence (whole entry): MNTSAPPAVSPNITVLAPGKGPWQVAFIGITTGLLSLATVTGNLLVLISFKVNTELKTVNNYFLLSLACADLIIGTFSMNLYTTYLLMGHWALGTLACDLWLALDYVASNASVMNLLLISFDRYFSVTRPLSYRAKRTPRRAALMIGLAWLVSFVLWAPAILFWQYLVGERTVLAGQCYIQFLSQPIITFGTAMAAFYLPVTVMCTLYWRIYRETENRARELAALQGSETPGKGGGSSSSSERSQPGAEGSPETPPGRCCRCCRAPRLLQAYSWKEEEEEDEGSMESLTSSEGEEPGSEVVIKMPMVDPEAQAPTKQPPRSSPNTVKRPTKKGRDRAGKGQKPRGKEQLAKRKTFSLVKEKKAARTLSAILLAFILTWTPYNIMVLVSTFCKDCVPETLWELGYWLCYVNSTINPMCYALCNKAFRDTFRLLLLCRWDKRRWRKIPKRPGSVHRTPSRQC

[24] = target: Serine/threonine-protein kinase haspin (Homo sapiens) (UniProt Q8TF76); conditions: Compound concentration 1000.0 nM
[25] = target: Serine/threonine-protein kinase PknB (Mycobacterium tuberculosis) (UniProt P9WI81); conditions: Compound concentration 1000.0 nM
[26] = target: Ephrin type-B receptor 4 (Homo sapiens) (UniProt P54760); conditions: Compound concentration 1000.0 nM
[27] = target: GABA-A receptor; anion channel (Rattus norvegicus) (UniProt O09028+P15431+P18506+P18508+P19969+P20236+P23574+P23576+P28471+P28473+P30191+P62813+P63079+P63138+Q91ZM7+Q9ES14); conditions: Compound concentration 10.0 uM
[28] = target: Mitogen-activated protein kinase 13 (Homo sapiens) (UniProt O15264); conditions: Compound concentration 1000.0 nM
[29] = target: Serine/threonine-protein kinase NIM1 (Homo sapiens) (UniProt Q8IY84); conditions: Compound concentration 1000.0 nM
[30] = target: Ephrin type-B receptor 3 (Homo sapiens) (UniProt P54753); conditions: Compound concentration 1000.0 nM
[31] = target: Testis-specific serine/threonine-protein kinase 3 (Homo sapiens) (UniProt Q96PN8); conditions: Compound concentration 1000.0 nM
[32] = target: Serine/threonine-protein kinase tousled-like 1 (Homo sapiens) (UniProt Q9UKI8); conditions: Compound concentration 1000.0 nM
[33] = target: Cyclin-dependent kinase 16 (Homo sapiens) (UniProt Q00536); conditions: Compound concentration 1000.0 nM
[34] = target: Protein-tyrosine kinase 6 (Homo sapiens) (UniProt Q13882); conditions: Compound concentration 1000.0 nM
[35] = target: Bone morphogenetic protein receptor type-1A (Homo sapiens) (UniProt P36894); conditions: Compound concentration 1000.0 nM
[36] = target: Cyclin-dependent kinase 2 (Homo sapiens) (UniProt P24941); conditions: Compound concentration 1000.0 nM

Serine/threonine-protein kinase tousled-like 1 (Homo sapiens), sequence (Q9UKI8 whole entry): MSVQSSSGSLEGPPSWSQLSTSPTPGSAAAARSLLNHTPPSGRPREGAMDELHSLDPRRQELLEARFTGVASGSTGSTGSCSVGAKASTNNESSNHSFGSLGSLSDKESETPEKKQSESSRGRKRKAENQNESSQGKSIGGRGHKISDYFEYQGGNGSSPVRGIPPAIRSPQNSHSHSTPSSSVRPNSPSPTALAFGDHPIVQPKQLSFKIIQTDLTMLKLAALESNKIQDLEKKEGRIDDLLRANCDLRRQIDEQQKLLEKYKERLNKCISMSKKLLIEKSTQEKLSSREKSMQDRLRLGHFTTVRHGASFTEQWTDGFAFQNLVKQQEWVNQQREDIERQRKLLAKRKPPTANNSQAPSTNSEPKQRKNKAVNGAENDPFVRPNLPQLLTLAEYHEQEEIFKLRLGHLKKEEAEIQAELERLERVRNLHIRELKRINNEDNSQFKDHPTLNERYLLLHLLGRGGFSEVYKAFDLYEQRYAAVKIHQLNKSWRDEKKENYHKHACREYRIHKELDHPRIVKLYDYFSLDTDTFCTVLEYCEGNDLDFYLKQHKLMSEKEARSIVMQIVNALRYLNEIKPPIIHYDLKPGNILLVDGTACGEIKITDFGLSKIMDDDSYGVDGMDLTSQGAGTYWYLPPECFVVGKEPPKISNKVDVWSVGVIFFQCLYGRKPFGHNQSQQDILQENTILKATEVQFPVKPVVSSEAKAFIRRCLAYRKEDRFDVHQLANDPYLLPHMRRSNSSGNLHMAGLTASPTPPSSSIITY
Ephrin type-B receptor 3 (Homo sapiens), sequence (P54753 whole entry): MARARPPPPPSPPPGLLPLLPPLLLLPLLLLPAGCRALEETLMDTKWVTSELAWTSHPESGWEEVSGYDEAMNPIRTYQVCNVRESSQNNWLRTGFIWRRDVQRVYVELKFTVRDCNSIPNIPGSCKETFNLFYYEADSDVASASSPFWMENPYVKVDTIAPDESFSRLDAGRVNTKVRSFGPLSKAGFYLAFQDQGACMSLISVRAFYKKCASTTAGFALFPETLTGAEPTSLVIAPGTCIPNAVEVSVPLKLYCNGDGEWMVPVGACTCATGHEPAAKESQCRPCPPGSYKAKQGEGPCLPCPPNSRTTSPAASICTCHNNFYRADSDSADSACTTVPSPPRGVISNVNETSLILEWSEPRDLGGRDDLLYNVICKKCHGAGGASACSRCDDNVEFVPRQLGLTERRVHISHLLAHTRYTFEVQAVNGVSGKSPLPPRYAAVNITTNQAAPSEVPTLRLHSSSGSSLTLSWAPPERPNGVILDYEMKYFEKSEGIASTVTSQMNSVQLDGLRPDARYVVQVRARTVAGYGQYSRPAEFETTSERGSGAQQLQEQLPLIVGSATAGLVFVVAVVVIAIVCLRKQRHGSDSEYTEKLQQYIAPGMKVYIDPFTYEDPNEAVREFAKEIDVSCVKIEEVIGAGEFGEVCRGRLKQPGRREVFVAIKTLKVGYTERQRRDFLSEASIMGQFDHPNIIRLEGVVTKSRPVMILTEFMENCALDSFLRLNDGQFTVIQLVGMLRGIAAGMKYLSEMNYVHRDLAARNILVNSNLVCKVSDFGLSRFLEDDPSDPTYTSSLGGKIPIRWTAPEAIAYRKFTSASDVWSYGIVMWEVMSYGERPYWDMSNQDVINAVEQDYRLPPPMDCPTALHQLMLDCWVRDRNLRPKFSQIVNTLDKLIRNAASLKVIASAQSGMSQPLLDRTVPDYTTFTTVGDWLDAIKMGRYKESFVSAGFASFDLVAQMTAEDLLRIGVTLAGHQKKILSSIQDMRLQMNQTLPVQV
Alpha-2C adrenergic receptor (Homo sapiens), sequence (P18825 whole entry): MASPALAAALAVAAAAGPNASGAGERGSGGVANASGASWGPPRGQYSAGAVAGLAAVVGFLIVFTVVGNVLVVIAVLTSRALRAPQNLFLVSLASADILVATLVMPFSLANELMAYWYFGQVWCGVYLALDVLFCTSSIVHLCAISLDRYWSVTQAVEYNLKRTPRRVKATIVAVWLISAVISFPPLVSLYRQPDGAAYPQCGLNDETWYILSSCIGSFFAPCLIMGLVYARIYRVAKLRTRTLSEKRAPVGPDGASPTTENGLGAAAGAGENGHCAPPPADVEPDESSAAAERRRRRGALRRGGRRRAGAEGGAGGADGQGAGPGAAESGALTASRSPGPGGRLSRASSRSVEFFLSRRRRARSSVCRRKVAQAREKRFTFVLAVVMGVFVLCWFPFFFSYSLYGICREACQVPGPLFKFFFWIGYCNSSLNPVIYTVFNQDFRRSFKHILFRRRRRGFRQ
D(1B) dopamine receptor (Homo sapiens), sequence (P21918 whole entry): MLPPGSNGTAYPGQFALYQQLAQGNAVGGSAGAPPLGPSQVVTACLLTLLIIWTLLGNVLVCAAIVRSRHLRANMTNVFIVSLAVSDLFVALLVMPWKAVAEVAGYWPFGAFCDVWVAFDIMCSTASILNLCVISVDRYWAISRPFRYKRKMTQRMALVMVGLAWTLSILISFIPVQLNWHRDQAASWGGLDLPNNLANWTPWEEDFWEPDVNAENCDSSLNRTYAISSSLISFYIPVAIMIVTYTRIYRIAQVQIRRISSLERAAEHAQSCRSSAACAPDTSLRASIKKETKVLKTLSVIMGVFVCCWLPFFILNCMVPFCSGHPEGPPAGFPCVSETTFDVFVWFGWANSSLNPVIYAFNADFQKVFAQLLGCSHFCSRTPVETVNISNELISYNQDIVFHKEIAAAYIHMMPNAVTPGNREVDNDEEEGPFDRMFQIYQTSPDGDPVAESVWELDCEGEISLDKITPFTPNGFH
Myosin-IIIa (Homo sapiens), sequence (Q8NEV4 whole entry): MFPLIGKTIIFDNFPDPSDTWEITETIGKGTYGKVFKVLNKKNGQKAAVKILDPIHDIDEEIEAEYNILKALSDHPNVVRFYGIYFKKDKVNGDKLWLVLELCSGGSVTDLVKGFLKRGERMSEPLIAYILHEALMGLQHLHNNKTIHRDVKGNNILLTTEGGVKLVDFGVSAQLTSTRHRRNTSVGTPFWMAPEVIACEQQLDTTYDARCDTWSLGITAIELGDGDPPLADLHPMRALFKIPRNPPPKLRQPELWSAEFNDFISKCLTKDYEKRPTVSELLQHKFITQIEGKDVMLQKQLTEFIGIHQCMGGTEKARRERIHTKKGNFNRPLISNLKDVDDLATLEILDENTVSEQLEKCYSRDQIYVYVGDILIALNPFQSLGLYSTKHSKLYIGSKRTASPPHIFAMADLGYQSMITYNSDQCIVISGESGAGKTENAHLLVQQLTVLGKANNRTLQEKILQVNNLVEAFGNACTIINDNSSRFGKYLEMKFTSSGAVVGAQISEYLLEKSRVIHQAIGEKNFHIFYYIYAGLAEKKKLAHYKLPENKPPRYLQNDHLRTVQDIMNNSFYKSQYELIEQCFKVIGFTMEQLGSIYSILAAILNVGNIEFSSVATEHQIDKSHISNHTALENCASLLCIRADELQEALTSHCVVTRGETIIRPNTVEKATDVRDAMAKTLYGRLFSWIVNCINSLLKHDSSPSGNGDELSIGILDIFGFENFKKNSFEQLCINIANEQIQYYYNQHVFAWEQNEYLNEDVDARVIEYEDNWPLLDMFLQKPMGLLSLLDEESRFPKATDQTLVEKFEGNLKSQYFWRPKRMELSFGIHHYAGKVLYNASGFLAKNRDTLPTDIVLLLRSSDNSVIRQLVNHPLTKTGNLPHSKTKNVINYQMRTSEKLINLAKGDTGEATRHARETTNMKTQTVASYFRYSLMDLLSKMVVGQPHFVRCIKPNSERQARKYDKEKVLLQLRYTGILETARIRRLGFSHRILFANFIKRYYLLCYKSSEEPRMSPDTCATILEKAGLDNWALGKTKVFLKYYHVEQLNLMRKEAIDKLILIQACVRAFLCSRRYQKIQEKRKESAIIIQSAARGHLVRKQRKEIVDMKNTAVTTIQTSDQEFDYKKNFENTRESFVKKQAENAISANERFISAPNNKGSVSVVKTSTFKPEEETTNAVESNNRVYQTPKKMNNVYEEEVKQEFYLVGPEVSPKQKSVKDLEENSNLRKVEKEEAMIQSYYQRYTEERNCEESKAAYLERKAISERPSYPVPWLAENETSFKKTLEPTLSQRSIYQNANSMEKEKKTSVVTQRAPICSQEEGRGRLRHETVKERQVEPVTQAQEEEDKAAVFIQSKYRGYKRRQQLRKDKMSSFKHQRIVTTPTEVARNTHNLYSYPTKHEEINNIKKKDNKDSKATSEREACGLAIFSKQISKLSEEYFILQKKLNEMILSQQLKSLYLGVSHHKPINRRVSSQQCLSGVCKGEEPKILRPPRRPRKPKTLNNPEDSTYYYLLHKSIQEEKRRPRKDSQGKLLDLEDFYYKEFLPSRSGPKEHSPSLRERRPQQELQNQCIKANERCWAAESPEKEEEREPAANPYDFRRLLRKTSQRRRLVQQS
Casein kinase I isoform delta (Homo sapiens), sequence (P48730 whole entry, looked up, canonical isoform): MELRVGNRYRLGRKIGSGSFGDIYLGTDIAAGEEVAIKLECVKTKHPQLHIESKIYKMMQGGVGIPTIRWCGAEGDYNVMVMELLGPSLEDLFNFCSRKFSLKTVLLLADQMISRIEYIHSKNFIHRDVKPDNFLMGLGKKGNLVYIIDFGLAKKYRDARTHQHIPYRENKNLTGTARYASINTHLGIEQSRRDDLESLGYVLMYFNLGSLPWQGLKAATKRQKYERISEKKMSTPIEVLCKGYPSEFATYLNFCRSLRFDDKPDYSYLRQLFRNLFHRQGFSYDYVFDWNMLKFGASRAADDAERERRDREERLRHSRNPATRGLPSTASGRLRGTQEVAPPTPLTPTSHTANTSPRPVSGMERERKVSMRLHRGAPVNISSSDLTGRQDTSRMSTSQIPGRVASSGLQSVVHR
Testis-specific serine/threonine-protein kinase 3 (Homo sapiens), sequence (Q96PN8 whole entry): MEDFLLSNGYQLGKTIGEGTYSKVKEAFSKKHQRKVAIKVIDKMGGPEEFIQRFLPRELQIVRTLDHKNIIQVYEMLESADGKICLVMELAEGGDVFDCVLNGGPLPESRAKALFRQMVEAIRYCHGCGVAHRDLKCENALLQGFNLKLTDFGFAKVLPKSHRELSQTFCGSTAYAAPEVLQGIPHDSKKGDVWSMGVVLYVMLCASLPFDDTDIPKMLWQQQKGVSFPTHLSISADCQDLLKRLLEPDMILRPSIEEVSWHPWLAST

| SMILES | residual activity [1] [%] | inhibition [2] [%] | residual activity [3] [%] | IC50 [4] | residual activity [5] [%] | residual activity [6] [%] | residual activity [7] [%] | residual activity [8] [%] | residual activity [9] [%] | residual activity [10] [%] | residual activity [11] [%] | residual activity [12] [%] | inhibition (Rattus norvegicus) [%] | residual activity [13] [%] | residual activity [14] [%] | residual activity [15] [%] | residual activity [16] [%] | residual activity [17] [%] | residual activity [18] [%] | residual activity [19] [%] | further results |
| --- | --- | --- | --- | --- | --- | --- | --- | --- | --- | --- | --- | --- | --- | --- | --- | --- | --- | --- | --- | --- | --- |
| O=C(O)[C@@H]1[C@@H](Cn2nnc3ccccc3c2=O)CC[C@H]1C(=O)c1ccc(OCCC2CCOCC2)cc1 [BAY-694] | 100 | 19.6 | 100 | 80 nM (not active) | 98 | 100 | 100 | 100 | 99 | 100 | 100 | 73 | 13.4 | 100 | 100 | 100 | 100 | 95 | 93 | 100 | residual activity [20]: 95%; inhibition [21]: 13.1%; residual activity [22]: 93%; inhibition [23]: 6.4%; residual activity [24]: 88%; residual activity [25]: 94%; residual activity [26]: 100%; inhibition [27]: 13.1%; residual activity [28]: 94%; residual activity [29]: 73%; residual activity [30]: 100%; residual activity [31]: 100%; residual activity [32]: 100%; residual activity [33]: 100%; residual activity [34]: 99%; residual activity [35]: 100%; residual activity [36]: 100% |
| O=C(O)[C@H]1[C@H](Cn2nnc3ccccc3c2=O)CC[C@@H]1C(=O)c1ccc(OCCC2CCOCC2)cc1 [BAY-7598] | 99 | 7.53 | 73 | 0.085 nM (active) | 100 | 92 | 81 | 90 | 90 | 87 | 96 | 73 | 9.67 | 100 | 91 | 100 | 100 | 100 | 100 | 89 | residual activity [20]: 80%; inhibition [21]: 8.3%; residual activity [22]: 78%; inhibition [23]: 18%; residual activity [24]: 84%; residual activity [25]: 77%; residual activity [26]: 96%; inhibition [27]: 6.48%; residual activity [28]: 97%; residual activity [29]: 93%; residual activity [30]: 89%; residual activity [31]: 85%; residual activity [32]: 96%; residual activity [33]: 98%; residual activity [34]: 100%; residual activity [35]: 61%; residual activity [36]: 100% |
